# Results from article PMC6145453 (ACS infectious diseases, 2018).
# Entries after “also recorded” stand apart in the source; their conditions may differ.
# Tests used:
# [1] = test system: influenza A/WSN/33 virus; assay type: cell-based
# [2] = test system: A/Brisbane/59/2007-R (oseltamivir resistant); assay: microbe, parasite or virus in culture; assay type: cell-based; settings: Influenza A virus, H1N1, A549, 24 h
# [3] = test system: rWSN-NP/Y40F virus; assay type: cell-based, influenza A virus
# [4] = target: NP (rY40F WSN virus infected A549 cells) (Influenza A virus, UniProt P15682, G34D/P283S/Y40F); assay type: cell-based
SMILES,maximum virus inhibition while maintaining enough virus production for passages [1],IC50 [2],resistance phenotype of Y40F mutant virus [3],effect on NP oligomerization [4]
"CC(C)(C)c1ccc(C(=O)Nc2ccc(NC(=O)c3ccc(C(C)(C)C)cc3)cc2)cc1 [S119, N,N′-(1,4-Phenylene)bis(4-(tert-butyl)benzamide)]",3 logs,> 50 µM,resistant phenotype,unaffected
"CC(C)(C)c1ccc(C(=O)Nc2ccc(Nc3ccccc3)cc2)cc1 [S119-8, 4-(tert-butyl)-N-(4-(phenylamino)-phenyl)benzamide]",,3.85 µM,maintained resistance; also recorded: retains the same Y40F resistant phenotype,
"Cc1onc(-c2ccccc2)c1C(=O)N1CCN(c2ccc([N+](=O)[O-])cc2Cl)CC1 [nucleozin, reference compound]",,,minor resistance phenotype,altered
